Reference: publication PMC11644009 (Molecules, 2024)

Experiments:
[1] = tested on: influenza virus A/Vladivostok/2/09 (H1N1); assay: Virus inhibitory activity on chicken embryo model (chemical therapeutic index); type: in vivo; settings: samples 0.0016%–0.2% (0.003–0.4 mg per chicken embryo), Rimantadine 10 µg/mL, Tamiflu 6 µg/mL
Protocol: Rimantadine® (Olainfarm, Olaine, Latvia), alpha-methyltricyclo[3.3.1.1/.7]decan-1-methanamine (in the form of hydrochloride)) was used as a comparison drug at a dose of 10 µg /mL and Tamiflu® (Oseltamivir, Hoffmann-La Roche, Basel, Switzerland, (3R,4R,5S)-4-acetylamino-5-amino-3-(1-ethylpropoxy)-1-cyclohexene-1-carboxylic acid ethyl […], phosphate)) at a dose of 6 µg /mL.
To determine the chemical therapeutic index (CTI), the virus inhibitory activity of samples was studied at concentrations from 0.0016% to 0.2%, which corresponded to doses of 0.003–0.4 mg per chicken embryo (0.06–8 mg/kg) (Table 2).

[2] = tested on: influenza virus A/Vladivostok/2/09 (H1N1); type: in vivo; settings: compound 0.2%, 0.4 mg/ch.e. (8 mg/kg)
[3] = tested on: neuraminidase activity of influenza virus A/Vladivostok/2/09 (H1N1); assay: Effect on neuraminidase activity (fluorescent kit); type: biochemical; settings: maximum dose 1 mg/100 μL
Protocol: To determine the effect of lupinine derivatives 1–5 on neuraminidase activity, the maximum dose of 1 mg/100 μL was used. It was established (Figure 3) that compounds 4 and 5 were able to alter the neuraminidase activity of influenza viruses. It was shown that these two triazole-containing lupinines suppressed neuraminidase activity by no more than 40%.
The determination of the neuraminidase activity of the studied samples was carried out using a fluorescent kit in accordance with the manufacturer’s recommendations (AbCam, Cambridge, UK). The non-fluorescent neuraminidase substrate becomes highly fluorescent when cleaved by neuraminidase. The signal is easily read by fluorescence at Ex/Em = ~320/~450 nm.
Figure 3 The influence of the studied samples on neuraminidase activity.

[4] = tested on: hemagglutinating activity of influenza A/Vladivostok/2/09 (H1N1) virus; assay: Effect on hemagglutinating activity of influenza virus; settings: maximum dose 1 mg/100 μL
Protocol: The hemagglutinating activity of viruses was determined according to the standard method [53] using a 0.75% suspension of chicken erythrocytes. When determining the effect of the studied sample on hemagglutinating properties, the sample in different doses was mixed with the virus, and after 30 min of incubation at 37 °C, the hemagglutinating activity was determined using the standard method.

| Structure (SMILES) | Chemical Therapeutic Index of the Studied Sample [1] | Decrease in Influenza Virus Infectivity Titer, lg [2] [lg] | Suppression of neuraminidase activity [3] | Suppression of hemagglutinating activity [4] |
| --- | --- | --- | --- | --- |
| COc1ccc(-c2cn(C[C@@H]3CCCN4CCCC[C@H]34)nn2)cc1 [Compound 1, (1S,9aR)-1-{[4-(4-Methoxyphenyl)-1H-1,2,3-triazol-1-yl]methyl}octahydro-2H-quinolizine] | 64.0 |  |  |  |
| Cc1cccc(-c2cn(C[C@@H]3CCCN4CCCC[C@H]34)nn2)c1 [Compound 2, (1S,9aR)-1-{[4-(m-Tolyl)-1H-1,2,3-triazol-1-yl]methyl}octahydro-2H-quinolizine] | 57.0 | 0.8 |  |  |
| c1ccc(-c2cn(C[C@@H]3CCCN4CCCC[C@H]34)nn2)cc1 [Compound 3, (1S,9aR)-1-[(4-Phenyl-1H-1,2,3-triazol-1-yl)methyl]octahydro-2H-quinolizine] | 8.1 | 0.0 |  |  |
| O=Cc1ccc(OCc2cn(C[C@@H]3CCCN4CCCC[C@H]34)nn2)cc1 [Compound 4, 4-({1-[((1S,9aR)-Octahydro-2H-quinolizin-1-yl)methyl]-1H-1,2,3-triazol-4-yl}methoxy)benzaldehyde] | 40.0 |  | no more than 40% |  |
| CCc1cc(C(=O)OCc2cn(C[C@@H]3CCCN4CCCC[C@H]34)nn2)c(O)c(C(C)(C)C)c1 [Compound 5, {1-[((1S,9aR)-Octahydro-2H-quinolizin-1-yl)methyl]-1H-1,2,3-triazol-4-yl}methyl-3-tert-butyl-2-hydroxy-5-ethylbenzoate] | >100.0 |  | no more than 40% | no less than 25% |
| CC(N)C12CC3CC(CC(C3)C1)C2 (stereo not drawn) [Rimantadine, alpha-methyltricyclo[3.3.1.1/.7]decan-1-methanamine, reference compound] | 30 |  |  |  |
| CCOC(=O)C1=C[C@@H](OC(CC)CC)[C@H](NC(C)=O)[C@@H](N)C1 [Tamiflu, (3R,4R,5S)-4-acetylamino-5-amino-3-(1-ethylpropoxy)-1-cyclohexene-1-carboxylic acid ethyl ether, phosphate, reference compound] | 11.0 |  |  |  |
